Patent US20250011318A1 (ARCUS BIOSCIENCES, INC., priority 2023, published 2025)

Tests used:
Cbl-b = target: T1, Cbl-b (Homo sapiens, UniProt Q13191); test: Cbl-b probe displacement HTRF binding assay; conditions: 0.4 nM biotinylated Cbl-b, 150 nM BODIPY probe
T1 construct: biotin (biotinylated)
Protocol: The affinity with which compounds of the present disclosure bind to Cbl-b was assessed using probe displacement homologous time resolved fluorescence (HTRF) assays. The assays used a BODIPY™ conjugated probe (Example 54 from WO 2020264398) and biotinylated Cbl-b. The assays were performed in assay buffer consisting of 20 mM Hepes, 150 mM NaCl, 0.01% Triton X-100, 0.5 mM TCEP, 0.01% BSA. On the day of the assay, a 20 point, 1:2 master serial dilution of each compound was prepared in DMSO to span a final concentration range of 10 μM to 0 nM. Two hundred nanoliters of diluted compound was added to each well of a 384-well plate. Fifteen microliters of biotinylated—Cbl-b resuspended in assay buffer were added to each well and the plate incubated for 60 minutes at room temperature prior to addition of 5 μL of BODIPY™ probe in assay buffer. Final assay conditions included 0.4 nM of Cbl-b and 150 nM of BODIPY™ probe. After a further 15 minutes of incubation at room temperature, 5 μl of Streptavidin-Terbium cryptate reagent at 5-fold final concentration was added to each well of the 384-well plate. Binding of a probe to Cbl-b results in an increase of HTRF signal. HTRF signal was measured by Envision plate reader, while competition of a compound of the present disclosure with probe results in a decrease of signal. Percentage maximum activity in each test well was calculated based on DMSO (maximum activity, 0% displacement) and no protein control wells (baseline activity, 100% displacement). Binding affinity was determined from a dose response curve fitted using a standard four parameter fit equation. See Table 3 for data for compounds (Cbl-b Binding (IC50)).

Jurkat cells = test: IL-2 secretion assay in CD3/CD28-activated Jurkat cells (AlphaLISA); format: cell-based, human; conditions: Homo sapiens, CD3/CD28 T Cell Activator, 24 h, IL-2 AlphaLISA
Protocol: Certain compounds were also evaluated in an IL-2 secretion assay. On the day of the assay, a 16 point, 1:2 master serial dilution of each compound was prepared in Opti-MEM to span a final concentration range of 10 μM to 300 pM. Assays were setup in CORNING® tissue culture-treated 384-well microplates containing 60 nL of each dilution. Jurkat cells grown in RPMI-1640 supplemented with 10% FBS, 1% Glutamax, and 1% Pen/Strep were collected, resuspended in Opti-MEM. 50,000 cells/well and added to the compound plates. After a short spin (1200 rpm for 1 min), the plates were incubated at 37° C. for 1 hour. The cells were activated by adding 15 μL of IMUNOCULT™ Human CD3/CD28 T Cell Activator (STEMCELL Technologies) diluted in Opti-MEM. After 24 h of incubation at 37° C., aliquots of culture supernatants were transferred to OptiPlate-384 (PerkinElmer) microplates. The level of IL-2 secretion in the supernatants was then determined using the IL-2 (human) AlphaLISA Detection Kit (PerkinElmer) according to the manufacturer's recommendations. The AlphaLISA signal was measured using an EnVision plate reader (PerkinElmer). EC50 values were determined by fitting the data to a standard 4-parameter logistic equation. See Table 3 for data for select compounds (IL-2 Secretion (EC50)).

T1 sequence (Q13191 whole entry, species assumed): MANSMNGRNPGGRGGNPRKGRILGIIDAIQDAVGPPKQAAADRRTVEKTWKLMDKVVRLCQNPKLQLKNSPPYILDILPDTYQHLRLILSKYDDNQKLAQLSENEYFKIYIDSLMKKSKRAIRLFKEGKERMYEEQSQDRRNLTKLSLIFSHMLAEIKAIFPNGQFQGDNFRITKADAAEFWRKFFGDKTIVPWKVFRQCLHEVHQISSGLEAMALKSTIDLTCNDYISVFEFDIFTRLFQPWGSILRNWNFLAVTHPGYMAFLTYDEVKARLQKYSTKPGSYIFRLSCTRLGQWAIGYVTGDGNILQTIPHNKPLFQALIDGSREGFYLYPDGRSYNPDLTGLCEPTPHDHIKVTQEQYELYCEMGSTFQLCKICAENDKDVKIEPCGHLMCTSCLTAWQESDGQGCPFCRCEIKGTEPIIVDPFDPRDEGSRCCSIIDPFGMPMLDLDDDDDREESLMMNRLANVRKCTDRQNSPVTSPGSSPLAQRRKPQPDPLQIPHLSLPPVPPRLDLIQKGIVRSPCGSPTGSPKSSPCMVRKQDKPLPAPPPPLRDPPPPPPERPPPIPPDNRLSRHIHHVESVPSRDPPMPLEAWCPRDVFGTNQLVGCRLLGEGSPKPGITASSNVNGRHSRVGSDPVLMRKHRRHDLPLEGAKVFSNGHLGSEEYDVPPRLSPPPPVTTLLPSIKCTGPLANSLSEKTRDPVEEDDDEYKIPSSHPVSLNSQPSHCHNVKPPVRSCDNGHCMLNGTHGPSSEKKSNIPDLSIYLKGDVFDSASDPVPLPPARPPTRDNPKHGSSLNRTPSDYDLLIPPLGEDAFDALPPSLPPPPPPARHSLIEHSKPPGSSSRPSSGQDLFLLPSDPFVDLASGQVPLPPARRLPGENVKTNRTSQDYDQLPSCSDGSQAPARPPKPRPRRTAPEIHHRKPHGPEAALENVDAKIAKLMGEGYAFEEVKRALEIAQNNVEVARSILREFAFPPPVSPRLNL

IC50 (Cbl-b) [nM]	EC50 (Jurkat cells) [nM]	SMILES
< 100	< 100	C[C@H]1CCCN(Cc2cc3c(C4CC4)cn(-c4cc(-c5ccc(C#N)cc5-c5nccn5C)cc(C(F)(F)F)n4)c(=O)c3[nH]2)C1 [Example 16, 4-[2-(2-{[(S)-3-methyl-1-piperidyl]methyl}-4-cyclopropyl-7-oxo-1,6-dihydro-1,6-diaza-6-indenyl)-6-(trifluoromethyl)-4-pyridyl]-3-(1-methyl-2-imidazolyl)benzonitrile]
< 100	< 100	Cn1ccnc1-c1cc(F)ccc1-c1cc(C2CC2)nc(-n2cc(C3CC3)c3cc(CN4CCC[C@H](O)C4)[nH]c3c2=O)c1 [Example 58, 2-{[(S)-3-hydroxy-1-piperidyl]methyl}-4-cyclopropyl-6-{6-cyclopropyl-4-[4-fluoro-2-(1-methyl-2-imidazolyl)phenyl]-2-pyridyl}-1,6-dihydro-1,6-diaza-7-indenone]
< 100	< 100	Cn1cnnc1-c1cc(F)ccc1-c1cc(C2CC2)nc(-n2cc(C(F)(F)F)c3nc(CC4CCC4)[nH]c3c2=O)c1 [Example 42, 2-(Cyclobutylmethyl)-5-{6-cyclopropyl-4-[4-fluoro-2-(4-methyl-4H-1,2,4-triazol-3-yl)phenyl]-2-pyridyl}-7-(trifluoromethyl)-3,5-dihydro-1,3,5-triaza-4-indenone]
< 100	< 100	CCOCCNCc1cc2ncn(-c3cc(-c4ccc(F)cc4-c4nncn4C)cc(C4CC4)n3)c(=O)c2[nH]1 [Example 31, 6-{6-cyclopropyl-4-[4-fluoro-2-(4-methyl-4H-1,2,4-triazol-3-yl)phenyl]-2-pyridyl}-2-[(2-ethoxyethylamino)methyl]-1,6-dihydro-1,4,6-triaza-7-indenone]
< 100	1000 to 5000	Cc1cncnc1-c1cc(F)ccc1-c1cc(C2CC2)nc(N2Cc3ccc(CN4CCC[C@H](C)C4)cc3C2=O)c1 [Example 143, 2-[6-Cyclopropyl-4-[4-fluoro-2-(5-methylpyrimidin-4-yl)phenyl]pyridin-2-yl]-6-[[(3S)-3-methylpiperidin-1-yl]methyl]-3H-isoindol-1-one]
< 100	< 100	COCCNCc1cc2c(C(F)(F)F)cn(-c3cc(-c4ccc(F)cc4-n4cc(C)nn4)cc(C4CC4)n3)c(=O)c2[nH]1 [Example 131, 6-[6-cyclopropyl-4-[4-fluoro-2-(4-methyltriazol-1-yl)phenyl]pyridin-2-yl]-2-[(2-methoxyethylamino)methyl]-4-(trifluoromethyl)-1H-pyrrolo[2,3-c]pyridin-7-one]
< 100	100 to 1000	CO[C@H]1CCCN(Cc2cc3c(C4CC4)cn(-c4cc(-c5ccc(F)cc5-c5nccn5C)cc(C5CC5)n4)c(=O)c3[nH]2)C1 [Example 61, 2-{[(S)-3-methoxy-1-piperidyl]methyl}-4-cyclopropyl-6-{6-cyclopropyl-4-[4-fluoro-2-(1-methyl-2-imidazolyl)phenyl]-2-pyridyl}-1,6-dihydro-1,6-diaza-7-indenone]
< 100	< 100	CC1(NCc2cc3c(C4CC4)cn(-c4cc(-c5ccc(C#N)cc5-c5nncn5C(F)F)cc(C5CC5)n4)c(=O)c3[nH]2)CCC1 [Example 68, 4-(6-cyclopropyl-2-{4-cyclopropyl-2-[(1-methylcyclobutylamino)methyl]-7-oxo-1,6-dihydro-1,6-diaza-6-indenyl}-4-pyridyl)-3-[4-(difluoromethyl)-4H-1,2,4-triazol-3-yl]benzonitrile]
< 100	< 100	COCCNCc1cc2ncn(-c3cc(-c4ccc(F)cc4-n4nncc4C)cc(C4CC4)n3)c(=O)c2[nH]1 [Example 132]
< 100	100 to 1000	Cn1cnnc1-c1cc(F)ccc1-c1cc(C2CC2)nc(-n2cnc3cc(CC4CCOCC4)[nH]c3c2=O)c1 [Example 122, 3-[6-cyclopropyl-4-[4-fluoro-2-(4-methyl-1,2,4-triazol-3-yl)phenyl]pyridin-2-yl]-6-(oxan-4-ylmethyl)-5H-pyrrolo[3,2-d]pyrimidin-4-one]
